Our source for the EC50 values is patent publication US9499550B2 (BRISTOL-MYERS SQUIBB COMPANY, priority 2012, dated 2016).

The test system of assay [1] is HCV genotype 1a (H77 strain) replicon in HUH-7 cells. Put plainly: HCV replicon luciferase reporter assay, genotype 1a. It counts as cell-based. The conditions noted are these: Hepatitis C virus, Huh-7, 72 h, HCV genotype 1a replicon luciferase assay, 3 days incubation, range class, read-out: LE_1a (EC50, range). The method, boiled down: (§1)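 Replicon inhibition for both genotypes was measured as Renilla luciferase signal (EnduRen, 7.5 μM final, 2 h) after 3-day, 37° C exposure of replicon-bearing HUH-7 cells in 4% FCS DMEM, 0.5% DMSO. The 1b construct carries S1179I; the 1a H77 construct carries P1496L and S2204I. Twenty-point, 3-fold dilutions were fitted four-parametrically for EC50, and CC50 was taken from multiplexed Cell Titer-Blue.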
(In general: In antiviral work, replicon cells carry a viral genome segment that copies itself.)

Assay [2] relates to HCV genotype 1b (Con1) replicon in HUH-7 cells. Nature of the assay: HCV replicon luciferase reporter assay, genotype 1b. It counts as cell-based. The conditions noted are these: Hepatitis C virus, Huh-7, 72 h, HCV genotype 1b replicon luciferase assay, 3 days incubation, range class, read-out: LE_1b (EC50, range). The procedure, abridged:
as §1

For `COc1cnc(O[C@@H]2C[C@H]3C(=O)N[C@]4(C(=O)NS(=O)(=O)C5(CF)CC5)C[C@H]4/C=C\CC[C@@H](C)C[C@@H](C)[C@H](NC(=O)OC4(C(F)(F)F)CCOC4)C(=O)N3C2)c2ccccc12` (stereo partly drawn) [Compound 1066, 3-(trifluoromethyl)tetrahydrofuran-3-yl((2R,6S,7R,9R,13aS,14aR,16aS,Z)-14a-(((1-(fluoromethyl)cyclopropyl)sulfonyl)carbamoyl)-2-((4-methoxyisoquinolin-1-yl)oxy)-7,9-dimethyl-5,16-dioxo-1,2,3,5,6,7,8,9,10,11,13a,14,14a,15,16,16a-hexadecahydrocyclopropa[e]pyrrolo[1,2-a][1,4]diazacyclopentadecin-6-yl)carbamate], the EC50 in assay [1] and in assay [2] was less than 5.46 nM throughout.

As to `COc1ccc2c(O[C@@H]3C[C@H]4C(=O)N[C@]5(C(=O)NS(=O)(=O)C6CC6)C[C@H]5/C=C\CC[C@H](C)C[C@@H](C)[C@H](NC(=O)OC(C)(C)C)C(=O)N4C3)nccc2c1` [Compound 1067, tert-butyl ((2R,6S,7R,9S,13aS,14aR,16aS,Z)-14a-((cyclopropylsulfonyl)carbamoyl)-2-((6-methoxyisoquinolin-1-yl)oxy)-7,9-dimethyl-5,16-dioxo-1,2,3,5,6,7,8,9,10,11,13a,14,14a,15,16,16a-hexadecahydrocyclopropa[e]pyrrolo[1,2-a][1,4]diazacyclopentadecin-6-yl)carbamate], the EC50 in assay [1] and in assay [2] was less than 5.46 nM in each case.

`COc1ccc2c(O[C@@H]3C[C@H]4C(=O)N[C@]5(C(=O)NS(=O)(=O)C6CC6)C[C@H]5/C=C\CC[C@@H](C)C[C@@H](C)[C@H](NC(=O)OC(C)(C)C)C(=O)N4C3)nccc2c1` [Compound 1068, tert-butyl ((2R,6S,7R,9R,13aS,14aR,16aS,Z)-14a-((cyclopropylsulfonyl)carbamoyl)-2-((6-methoxyisoquinolin-1-yl)oxy)-7,9-dimethyl-5,16-dioxo-1,2,3,5,6,7,8,9,10,11,13a,14,14a,15,16,16a-hexadecahydrocyclopropa[e]pyrrolo[1,2-a][1,4]diazacyclopentadecin-6-yl)carbamate]: the 50% effective concentration (EC50) in assay [1] and in assay [2] was less than 5.46 nM throughout.

In the case of `CCCOc1cc2c(Cl)cccc2c(O[C@@H]2C[C@H]3C(=O)N[C@]4(C(=O)NS(=O)(=O)C5CC5)C[C@H]4/C=C\CC[C@H](C)C[C@@H](C)[C@H](NC(=O)OC(C)(C)C)C(=O)N3C2)n1` [Compound 1069, tert-butyl ((2R,6S,7R,9S,13aS,14aR,16aS,Z)-2-((5-chloro-3-propoxyisoquinolin-1-yl)oxy)-14a-((cyclopropylsulfonyl)carbamoyl)-7,9-dimethyl-5,16-dioxo-1,2,3,5,6,7,8,9,10,11,13a,14,14a,15,16,16a-hexadecahydrocyclopropa[e]pyrrolo[1,2-a][1,4]diazacyclopentadecin-6-yl)carbamate], the EC50 in assay [1] and in assay [2] was less than 5.46 nM throughout.

Turning to `CCCOc1cc2c(Cl)cccc2c(O[C@@H]2C[C@H]3C(=O)N[C@]4(C(=O)NS(=O)(=O)C5CC5)C[C@H]4/C=C\CC[C@@H](C)C[C@@H](C)[C@H](NC(=O)OC(C)(C)C)C(=O)N3C2)n1` [Compound 1070, tert-butyl ((2R,6S,7R,9R,13aS,14aR,16aS,Z)-2-((5-chloro-3-propoxyisoquinolin-1-yl)oxy)-14a-((cyclopropylsulfonyl)carbamoyl)-7,9-dimethyl-5,16-dioxo-1,2,3,5,6,7,8,9,10,11,13a,14,14a,15,16,16a-hexadecahydrocyclopropa[e]pyrrolo[1,2-a][1,4]diazacyclopentadecin-6-yl)carbamate], the concentration giving a half-maximal response (EC50) in assay [1] and in assay [2] was less than 5.46 nM in each case.

With `CCCOc1cc2c(Cl)cccc2c(O[C@@H]2C[C@H]3C(=O)N[C@]4(C(=O)NS(=O)(=O)C5(C)CC5)C[C@H]4/C=C\CC[C@H](C)C[C@@H](C)[C@H](NC(=O)OC(C)(C)C)C(=O)N3C2)n1` [Compound 1071, tert-butyl ((2R,6S,7R,9S,13aS,14aR,16aS,Z)-2-((5-chloro-3-propoxyisoquinolin-1-yl)oxy)-7,9-dimethyl-14a-(((1-methylcyclopropyl)sulfonyl)carbamoyl)-5,16-dioxo-1,2,3,5,6,7,8,9,10,11,13a,14,14a,15,16,16a-hexadecahydrocyclopropa[e]pyrrolo[1,2-a][1,4]diazacyclopentadecin-6-yl)carbamate], the EC50 in assay [1] and in assay [2] was less than 5.46 nM in each case.

Take `CCCOc1cc2c(Cl)cccc2c(O[C@@H]2C[C@H]3C(=O)N[C@]4(C(=O)NS(=O)(=O)C5(C)CC5)C[C@H]4/C=C\CC[C@@H](C)C[C@@H](C)[C@H](NC(=O)OC(C)(C)C)C(=O)N3C2)n1` [Compound 1072, tert-butyl ((2R,6S,7R,9R,13aS,14aR,16aS,Z)-2-((5-chloro-3-propoxyisoquinolin-1-yl)oxy)-7,9-dimethyl-14a-(((1-methylcyclopropyl)sulfonyl)carbamoyl)-5,16-dioxo-1,2,3,5,6,7,8,9,10,11,13a,14,14a,15,16,16a-hexadecahydrocyclopropa[e]pyrrolo[1,2-a][1,4]diazacyclopentadecin-6-yl)carbamate]: the EC50 in assay [1] and in assay [2] was less than 5.46 nM in each case.

Turning to `C[C@H]1CC/C=C\[C@@H]2C[C@@]2(C(=O)NS(=O)(=O)C2(C)CC2)NC(=O)[C@@H]2C[C@@H](Oc3nc(OCC(F)F)cc4c(Cl)cccc34)CN2C(=O)[C@@H](NC(=O)OC(C)(C)C)[C@H](C)C1` [Compound 1073, tert-butyl ((2R,6S,7R,9S,13aS,14aR,16aS,Z)-2-((5-chloro-3-(2,2-difluoroethoxyl)isoquinolin-1-yl)oxy)-7,9-dimethyl-14a-(((1-methylcyclopropyl)sulfonyl)carbamoyl)-5,16-dioxo-1,2,3,5,6,7,8,9,10,11,13a,14,14a,15,16,16a-hexadecahydrocyclopropa[e]pyrrolo[1,2-a][1,4]diazacyclopentadecin-6-yl)carbamate], the 50% effective concentration (EC50) in assay [1] and in assay [2] was less than 5.46 nM in each case.

For the molecule `C[C@@H]1CC/C=C\[C@@H]2C[C@@]2(C(=O)NS(=O)(=O)C2(C)CC2)NC(=O)[C@@H]2C[C@@H](Oc3nc(OCC(F)F)cc4c(Cl)cccc34)CN2C(=O)[C@@H](NC(=O)OC(C)(C)C)[C@H](C)C1` [Compound 1074, tert-butyl ((2R,6S,7R,9R,13aS,14aR,16aS,Z)-2-((5-chloro-3-(2,2-difluoroethoxyl)isoquinolin-1-yl)oxy)-7,9-dimethyl-14a-(((1-methylcyclopropyl)sulfonyl)carbamoyl)-5,16-dioxo-1,2,3,5,6,7,8,9,10,11,13a,14,14a,15,16,16a-hexadecahydrocyclopropa[e]pyrrolo[1,2-a][1,4]diazacyclopentadecin-6-yl)carbamate], the concentration for a half-maximal effect (EC50) in assay [1] and in assay [2] was less than 5.46 nM throughout.

For `C[C@H]1CC/C=C\[C@@H]2C[C@@]2(C(=O)NS(=O)(=O)C2CC2)NC(=O)[C@@H]2C[C@@H](Oc3nc(OCC(F)F)cc4c(Cl)cccc34)CN2C(=O)[C@@H](NC(=O)OC(C)(C)C)[C@H](C)C1` [Compound 1075, tert-butyl ((2R,6S,7R,9S,13aS,14aR,16aS,Z)-2-((5-chloro-3-(2,2-difluoroethoxy)isoquinolin-1-yl)oxy)-14a-((cyclopropylsulfonyl)carbamoyl)-7,9-dimethyl-5,16-dioxo-1,2,3,5,6,7,8,9,10,11,13a,14,14a,15,16,16a-hexadecahydrocyclopropa[e]pyrrolo[1,2-a][1,4]diazacyclopentadecin-6-yl)carbamate], the EC50 in assay [1] and in assay [2] was less than 5.46 nM throughout.

One may read the EC50 as the midpoint of the concentration-response curve.
